Data set [1] can be described thus: DLS detection of grain size, PDI and zeta potential of vesicles. The data set is classed as physicochemical. Particulars: for PDI / d(nm) / zeta potential (mV): vesicles of the derivative, depolymerization and assembly repeated three times; for grain size of the vesicles: vesicles assembled once, pH below 7.2, FIG. 5. The protocol: • ① In this test example, the grain sizes of vesicle compounds formed by three compounds, LA-PEG2-BPA, LA-PEG4-BPA, and LA-PEG4-3-BPA, were detected.
Preparation of the vesicle nanoparticles to be detected for grain size in this test example includes: An appropriate amount of the corresponding compound was weighed and placed into a sample vial, double-distilled water was added, an appropriate amount of NaOH aqueous solution was added to adjust the pH to between 10 and 11 until the starting material was completely dissolved, followed by addition of an appropriate amount of hydrochloric acid to adjust the pH to below 7.2, thereby completing vesicle assembly.
② The lipoic acid derivatives were separately assembled into vesicles, including LA-PEG1-BPA (denoted as L^pB-1), LA-PEG2-BPA (denoted as L^pB-2), LA-PEG4-BPA (denoted as L^pB-3), LA-PEG8-BPA (denoted as L^pB-4), LA-PEG1-3-BPA (denoted as L^mB-1), LA-PEG2-3-BPA (denoted as L^mB-2), LA-PEG4-3-BPA (denoted as L^mB-3), and LA-PEG8-3-BPA (denoted as L^mB-4); the vesicle assembly method in this test example was based on the preparation method of the vesicle examples and depolymerization and assembly were repeatedly three times; the physicochemical properties of the self-assembled vesicles were detected, and the grain size, polymer dispersancy index (PDI), and zeta potential of the vesicles were detected using DLS (dynamic light scattering) technology. Table 1 […]

Data set [2] is described as follows: Critical aggregation concentration by Nile Red fluorescence. The data set is classed as physicochemical. Particulars: Nile Red 1.0 µM, distilled water. As for the experimental part:
A mixture of Nile Red (at a concentration of 1.0 µM) and the corresponding BPA lipoic acid derivative (at a concentration of 0-20 mM) in distilled water was oscillated overnight under constant temperature conditions. The fluorescence emission intensity of Nile Red at 525 nm wavelength (λex = 485 nm) was measured using a FluoroMax-4 fluorometer. The critical aggregation concentration of the BPA lipoic acid derivative in aqueous medium was calculated from the intersection point of two linear regression equations.
The critical aggregation concentration (CAC) refers to the minimum concentration at which a substance forms aggregates in an aqueous solution. When the concentration of a surfactant or colloidal particle in an aqueous solution exceeds the critical aggregation concentration, they begin to self-assemble into aggregates due to intermolecular attractive forces. This process is referred to as aggregation or self-assembly.

For `O=C(CCCCC1CCSS1)NCCOCCC(=O)NC(Cc1cccc(B(O)O)c1)C(=O)O` (stereo not drawn) [L^mB-1], in data set [1], the PDI amounted to 0.132, the “d(nm)” value worked out at 105.3 nm and the “zeta potential (mV)” value is -30.7 mV. In addition, the “CAC” value in data set [2] worked out at 256 µM.
As to `O=C(CCCCC1CCSS1)NCCOCCOCCC(=O)NC(Cc1cccc(B(O)O)c1)C(=O)O` (stereo not drawn) [L^mB-2], in data set [1], the PDI worked out at 0.102, the “d(nm)” value turned out to be 149.1 nm and the “zeta potential (mV)” value is recorded as -28.61 mV. Moreover, the “CAC” value in data set [2] was 254 µM.
Regarding `O=C(CCCCC1CCSS1)NCCOCCOCCOCCOCCC(=O)NC(Cc1cccc(B(O)O)c1)C(=O)O` (stereo not drawn) [L^mB-3], in data set [1], the “grain size of the vesicles” value is listed as “approximately 114 nm”, the PDI is listed as 0.209, the “d(nm)” value is on record as 165.7 nm and the “zeta potential (mV)” value was -35.20 mV. In data set [2], the “CAC” value is 274 µM.
As to `O=C(CCCCC1CCSS1)NCCOCCOCCOCCOCCOCCOCCOCCOCCC(=O)NC(Cc1cccc(B(O)O)c1)C(=O)O` (stereo not drawn) [L^mB-4], in data set [1], the PDI is on record as 0.237, the “d(nm)” value is listed as 284.6 nm and the “zeta potential (mV)” value was -35.2 mV. Besides, the “CAC” value in data set [2] amounted to 280 µM.
Turning to `O=C(CCCCC1CCSS1)NCCOCCC(=O)NC(Cc1ccc(B(O)O)cc1)C(=O)O` (stereo not drawn) [L^pB-1], in data set [1], the PDI is 0.107, the “d(nm)” value is recorded as 98.9 nm and the “zeta potential (mV)” value is listed as -32.5 mV. Further, the “CAC” value in data set [2] was determined as 243 µM.
As to `O=C(CCCCC1CCSS1)NCCOCCOCCC(=O)NC(Cc1ccc(B(O)O)cc1)C(=O)O` (stereo not drawn) [L^pB-2], in data set [1], the “grain size of the vesicles” value is on record as “approximately 244 nm”, the PDI stood at 0.015, the “d(nm)” value turned out to be 144.7 nm and the “zeta potential (mV)” value was -30.9 mV. In data set [2], the “CAC” value turned out to be 248 µM.
As to `O=C(CCCCC1CCSS1)NCCOCCOCCOCCOCCOCCOCCOCCOCCC(=O)NC(Cc1ccc(B(O)O)cc1)C(=O)O` (stereo not drawn) [L^pB-4], in data set [1], the PDI came to 0.217, the “d(nm)” value stood at 268.4 nm and the “zeta potential (mV)” value is on record as -29.35 mV. In addition, in data set [2], the “CAC” value was 277 µM.

Values taken from patent publication EP4772503A1, “LIPOIC ACID DERIVATIVE, VESICLE COMPOUND AND PREPARATION THEREFOR AND USE THEREOF” (Neuboron Medtech Research Institute Ltd., priority 2023, dated 2025).
